Data from patent US11559538B2, “Substituted 1,2-oxaborolan-2-ols as PDE4 inhibitors” (Pfizer Inc., priority 2018, dated 2023).
Where two headings read alike, the source gives them in different places.

How the values were obtained:
[1] = molecular target: PDE4B (aa 152-484, Uniprot ID Q07343) (Homo sapiens (Human), UniProt Q07343); experiment: PDE4 SPA assay (scintillation proximity assay); type: biochemical; conditions: read-out: PDE4B2 IC50
In short: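 Scintillation proximity read-out after a 30 min room-temperature reaction of ~81.6 pM PDE4B catalytic fragment (aa 152-484) with 1 μM tritiated/unlabeled cAMP, pH 7.5 Tris buffer with MgCl2 and Brij 35. Compound given ~10 min beforehand, 4-fold dilutions, ~2% DMSO; IC50 from four-parameter logistic curve.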

[2] = tested on: IL-4; experiment: Cytokine assay: IL-4 release from PHA-L stimulated human PBMCs; type: cell-based; conditions: read-out: IL4 IC50
In short: (§1)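 Cytokines IL-4, IL-13 and IFNγ quantified by HTRF after 48 h, 37 °C culture of human PBMCs activated with PHA-L at 3.5 μg/mL final. Test compound, 4-fold dilutions from approximately 10 μM in 0.25% DMSO, was added briefly before stimulation; IC50 derived by four-parameter logistic regression.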

[3] = tested on: IL-13; experiment: Cytokine assay: IL-13 release from PHA-L stimulated human PBMCs; type: cell-based; conditions: read-out: IL13 IC50
In short: as §1

[4] = tested on: IFNγ; experiment: Cytokine assay: IFNγ release from PHA-L stimulated human PBMCs; type: cell-based
In short: as §1

Chain of PDE4B (aa 152-484, Uniprot ID Q07343) (Q07343 324-656): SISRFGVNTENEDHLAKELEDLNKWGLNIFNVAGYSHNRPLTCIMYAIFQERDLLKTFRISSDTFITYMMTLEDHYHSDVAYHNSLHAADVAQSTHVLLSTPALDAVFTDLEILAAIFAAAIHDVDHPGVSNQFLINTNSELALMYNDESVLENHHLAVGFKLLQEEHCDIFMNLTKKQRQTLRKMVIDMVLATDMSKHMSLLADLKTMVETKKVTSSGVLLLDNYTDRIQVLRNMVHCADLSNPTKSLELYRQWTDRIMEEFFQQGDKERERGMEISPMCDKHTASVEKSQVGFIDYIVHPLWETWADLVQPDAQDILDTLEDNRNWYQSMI

Row | Compound | IC50 [1] | IC50 ([2]; Homo sapiens, PBMC) | IC50 ([3]; Homo sapiens, PBMC) | IC50 ([4]; Homo sapiens, PBMC) | IC50 [2] | IC50 [3] | IC50 [4]
1 | CCCOc1cc(-c2cncc(C3(CO)COB(O)C3)c2)ccc1OC (centres unmarked) [Example 31, 4-(hydroxymethyl)-4-(5-(4-methoxy-3-propoxyphenyl)pyridin-3-yl)-1,2-oxaborolan-2-ol] | 4.2 nM | 3.92 nM | 5730 nM | 2.96 nM | – | – | –
2 | COc1ccc(-c2cncc(C3COB(O)C3)c2)cc1OC (centres unmarked) [Example 32, 4-(5-(3,4-dimethoxyphenyl)pyridin-3-yl)-1,2-oxaborolan-2-ol] | 13 nM | 64 nM | 2250 nM | 8.47 nM | – | – | –
3 | CCOc1cc(-c2cncc(C3COB(O)C3)c2)ccc1OC (centres unmarked) [Example 33, 4-(5-(3-ethoxy-4-methoxyphenyl)pyridin-3-yl)-1,2-oxaborolan-2-ol] | 1.25 nM | 39.8 nM | 181 nM | 1.44 nM | – | – | –
4 | CCCOc1cc(-c2cncc(C3COB(O)C3)c2)ccc1OC (centres unmarked) [Example 34, 4-(5-(4-methoxy-3-propoxyphenyl)pyridin-3-yl)-1,2-oxaborolan-2-ol] | 0.52 nM | 14.3 nM | 309 nM | 1.39 nM | – | – | –
5 | COc1ccc(-c2cncc(C3COB(O)C3)c2)cc1OC(C)C (centres unmarked) [Example 35, 4-(5-(3-isopropoxy-4-methoxyphenyl)pyridin-3-yl)-1,2-oxaborolan-2-ol] | 1.17 nM | 6.98 nM | 230 nM | 1.55 nM | – | – | –
6 | COc1ccc(-c2cncc(C3COB(O)C3)c2)cc1OC1CC1 (centres unmarked) [Example 36, 4-(5-(3-cyclopropoxy-4-methoxyphenyl)pyridin-3-yl)-1,2-oxaborolan-2-ol] | 0.98 nM | 5.25 nM | 476 nM | 1.27 nM | – | – | –
7 | COc1ccc(-c2cncc(C3COB(O)C3)c2)cc1OCCF (centres unmarked) [Example 39, 4-(5-(3-(2-fluoroethoxy)-4-methoxyphenyl)pyridin-3-yl)-1,2-oxaborolan-2-ol] | 1.63 nM | 13.8 nM | 182 nM | 1.82 nM | – | – | –
8 | COc1ccc(-c2cccc(C3COB(O)C3)c2)cc1OCCCF (centres unmarked) [Example 40, 4-(3′-(3-fluoropropoxy)-4′-methoxy-[1,1′-biphenyl]-3-yl)-1,2-oxaborolan-2-ol] | 0.37 nM | 29.2 nM | 175 nM | 1.28 nM | – | – | –
9 | CCOc1c(OC)ccc(-c2cncc(C3COB(O)C3)c2)c1C(F)F (centres unmarked) [Example 41, 4-(5-(2-(difluoromethyl)-3-ethoxy-4-methoxyphenyl)pyridin-3-yl)-1,2-oxaborolan-2-ol] | 6.85 nM | 6.2 nM | 397 nM | 1.87 nM | – | – | –
10 | CCCOc1c(OC)ccc(-c2cccc(C3COB(O)C3)c2)c1C#N (centres unmarked) [Example 42, 3′-(2-hydroxy-1,2-oxaborolan-4-yl)-4-methoxy-3-propoxy-[1,1′-biphenyl]-2-carbonitrile] | 0.35 nM | 90.4 nM | 205 nM | 1.55 nM | – | – | –
11 | CCCOc1c(OC)ccc(-c2cccc(C3=CB(O)OC3)c2)c1C#N [Example 43, 3′-(2-hydroxy-2,5-dihydro-1,2-oxaborol-4-yl)-4-methoxy-3-propoxy-[1,1′-biphenyl]-2-carbonitrile] | 8.23 nM | 233 nM | 10000 nM | 76 nM | – | – | –
12 | CCOc1cc(-c2cncc(C3COB(O)C3)c2)cc(F)c1OC (centres unmarked) [Example 44, 4-(5-(3-ethoxy-5-fluoro-4-methoxyphenyl)pyridin-3-yl)-1,2-oxaborolan-2-ol] | 2.5 nM | 7.22 nM | 167 nM | 1.34 nM | – | – | –
13 | CCOc1cc(-c2cncc(C3COB(O)C3)c2)c(F)cc1OC (centres unmarked) [Example 46, 4-(5-(5-ethoxy-2-fluoro-4-methoxyphenyl)pyridin-3-yl)-1,2-oxaborolan-2-ol] | 3.46 nM | 11.8 nM | 317 nM | 3.77 nM | – | – | –
14 | CCOc1cc(-c2cncc(C3COB(O)C3)c2)c(Cl)cc1OC (centres unmarked) [Example 47, 4-(5-(2-chloro-5-ethoxy-4-methoxyphenyl)pyridin-3-yl)-1,2-oxaborolan-2-ol] | 3.01 nM | 4.11 nM | 143 nM | 1.54 nM | – | – | –
15 | CCCOc1nc(-c2cncc(C3COB(O)C3)c2)c(F)cc1OC (centres unmarked) [Example 48, 4-(3-fluoro-5-methoxy-6-propoxy-[2,3′-bipyridin]-5′-yl)-1,2-oxaborolan-2-ol] | 0.12 nM | 0.82 nM | 252 nM | 0.98 nM | – | – | –
16 | CCCOc1cc(-c2cncc(C3COB(O)C3)c2)cnc1OC (centres unmarked) [Example 51, 4-(6′-methoxy-5′-propoxy-[3,3′-bipyridin]-5-yl)-1,2-oxaborolan-2-ol] | 1.27 nM | 3.73 nM | 337 nM | 1.64 nM | – | – | –

Row | Compound | IC50 [1] | IC50 ([2]; Homo sapiens, PBMC) | IC50 ([3]; Homo sapiens, PBMC) | IC50 ([4]; Homo sapiens, PBMC) | IC50 [2] | IC50 [3] | IC50 [4]
17 | CCOc1cc(-c2cc(C3COB(O)C3)cnc2C)ccc1OC (centres unmarked) [Example 52, 4-(5-(3-ethoxy-4-methoxyphenyl)-6-methylpyridin-3-yl)-1,2-oxaborolan-2-ol] | 9.25 nM | 14.6 nM | 2610 nM | 5.74 nM | – | – | –
18 | CCOc1cc(-c2cncc(C3COB(O)C3)c2C)ccc1OC (centres unmarked) [Example 53, 4-(5-(3-ethoxy-4-methoxyphenyl)-4-methylpyridin-3-yl)-1,2-oxaborolan-2-ol] | 1.41 nM | 4.87 nM | 115 nM | 0.6 nM | – | – | –
19 | CCCOc1cc(-c2nc(C)cc(C3COB(O)C3)n2)ccc1OC (centres unmarked) [Example 54, 4-(2-(4-methoxy-3-propoxyphenyl)-6-methylpyrimidin-4-yl)-1,2-oxaborolan-2-ol] | 7.77 nM | 5.58 nM | 1490 nM | 4.2 nM | – | – | –
20 | CCCOc1cc(-c2nc(C3COB(O)C3)cc(C(F)(F)F)n2)ccc1OC (centres unmarked) [Example 55, 4-(2-(4-methoxy-3-propoxyphenyl)-6-(trifluoromethyl)pyrimidin-4-yl)-1,2-oxaborolan-2-ol] | 2.21 nM | – | – | – | 3.94 nM | 576 nM | 2.27 nM
21 | CCOc1cc(-c2cncc(C3COB(O)C3)n2)ccc1OC (centres unmarked) [Example 56, 4-(6-(3-ethoxy-4-methoxyphenyl)pyrazin-2-yl)-1,2-oxaborolan-2-ol] | 2.81 nM | 68 nM | 446 nM | 3.62 nM | – | – | –
22 | CCCOc1cc(-c2nc(CO)cc(C3COB(O)C3)n2)ccc1OC (centres unmarked) [Example 57, 4-(6-(hydroxymethyl)-2-(4-methoxy-3-propoxyphenyl)pyrimidin-4-yl)-1,2-oxaborolan-2-ol] | 10.2 nM | 7.54 nM | 239 nM | 2.29 nM | – | – | –
23 | CCOc1cc(-c2nc(C3COB(O)C3)cs2)ccc1OC (centres unmarked) [Example 58, 4-(2-(3-ethoxy-4-methoxyphenyl)thiazol-4-yl)-1,2-oxaborolan-2-ol] | 0.72 nM | 163 nM | 103 nM | 1.81 nM | – | – | –
24 | CCCOc1nc(-c2cncc(C3COB(O)C3)c2)ccc1OC (centres unmarked) [Example 60, 4-(5-methoxy-6-propoxy-[2,3′-bipyridin]-5′-yl)-1,2-oxaborolan-2-ol] | 0.34 nM | 2.04 nM | 308 nM | 0.53 nM | – | – | –
25 | COc1ccc(-c2cccc(C3COB(O)C3)c2)cc1OCCF (centres unmarked) [Example 63, 4-(3′-(2-fluoroethoxy)-4′-methoxy-[1,1′-biphenyl]-3-yl)-1,2-oxaborolan-2-ol] | 1.62 nM | 57.9 nM | 312 nM | 2.75 nM | – | – | –
26 | COc1ccc(-c2cncc(C3COB(O)C3)c2)cc1OC1CSC1 (centres unmarked) [Example 68, 4-(5-(4-methoxy-3-(thietan-3-yloxy)phenyl)pyridin-3-yl)-1,2-oxaborolan-2-ol] | 0.47 nM | 4.85 nM | 369 nM | 1.5 nM | – | – | –
27 | CCOc1cc(-c2cncc(C3COB(O)C3)c2)c(C)cc1OC (centres unmarked) [Example 69, 4-(5-(5-ethoxy-4-methoxy-2-methylphenyl)pyridin-3-yl)-1,2-oxaborolan-2-ol] | 4.39 nM | 6.51 nM | 373 nM | 3.84 nM | – | – | –
28 | CCOc1cc(-c2nc(C3COB(O)C3)ns2)ccc1OC (centres unmarked) [Example 72, 4-(5-(3-ethoxy-4-methoxyphenyl)-1,2,4-thiadiazol-3-yl)-1,2-oxaborolan-2-ol] | 0.85 nM | 103 nM | 375 nM | 6.21 nM | – | – | –
29 | CCOc1c(OC)ccc(-c2cncc(C3COB(O)C3)c2)c1F (centres unmarked) [Example 73, 4-(5-(3-ethoxy-2-fluoro-4-methoxyphenyl)pyridin-3-yl)-1,2-oxaborolan-2-ol] | 2.19 nM | 49.9 nM | 384 nM | 1.66 nM | – | – | –
30 | COc1ccc(-c2cccc(C3COB(O)C3)c2)cc1OC(C)C (centres unmarked) [Example 75, 4-(3′-isopropoxy-4′-methoxy-[1,1′-biphenyl]-3-yl)-1,2-oxaborolan-2-ol] | 4.52 nM | 125 nM | 395 nM | 5.98 nM | – | – | –
31 | CCCOc1cc(-c2nc(CO)cc(C3COB(O)C3)n2)ccc1OC (centres unmarked) [Example 76, 4-(6-(hydroxymethyl)-2-(4-methoxy-3-propoxyphenyl)pyrimidin-4-yl)-1,2-oxaborolan-2-ol] | 10 nM | – | – | – | 5.75 nM | 403 nM | 2.17 nM
32 | CCOc1cc(-c2cccc(C3COB(O)C3)c2)ccc1OC (centres unmarked) [Example 77, 4-(3′-ethoxy-4′-methoxy-[1,1′-biphenyl]-3-yl)-1,2-oxaborolan-2-ol] | 2.4 nM | 40.8 nM | 415 nM | 2.61 nM | – | – | –
